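Cells were grown in 96-well plates and exposed to each compound for 48 hours at five concentrations; endpoints were interpolated linearly between bracketing concentrations, or set to the highest concentration if not reached. TGI: total growth inhibition.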
Tests used:
Assay in all cases: DTP human tumour cell line panel, 48 h
786-0 renal = system: 786-0 renal
A498 renal = system: A498 renal
A549 NSCLC = system: A549 NSCLC
ACHN renal = system: ACHN renal
CCRF-CEM leukemia = system: CCRF-CEM leukemia
COLO 205 colon = system: COLO 205 colon
DLD-1 colon = system: DLD-1 colon
DMS 114 small cell lung = system: DMS 114 small cell lung
DMS 273 small cell lung = system: DMS 273 small cell lung
EKVX NSCLC = system: EKVX NSCLC
HCC-2998 colon = system: HCC-2998 colon
HCT-116 colon = system: HCT-116 colon
HCT-15 colon = system: HCT-15 colon
HL-60(TB) leukemia = system: HL-60(TB) leukemia
HOP-18 NSCLC = system: HOP-18 NSCLC
HOP-62 NSCLC = system: HOP-62 NSCLC
HOP-92 NSCLC = system: HOP-92 NSCLC
HT29 colon = system: HT29 colon
IGROV1 ovarian = system: IGROV1 ovarian
K-562 leukemia = system: K-562 leukemia
KM12 colon = system: KM12 colon
KM20L2 colon = system: KM20L2 colon
LOX IMVI melanoma = system: LOX IMVI melanoma
LXFL 529 NSCLC = system: LXFL 529 NSCLC
M14 melanoma = system: M14 melanoma
M19-MEL melanoma = system: M19-MEL melanoma
MALME-3M melanoma = system: MALME-3M melanoma
MOLT-4 leukemia = system: MOLT-4 leukemia
NCI-H226 lung = system: NCI-H226 lung
NCI-H23 lung = system: NCI-H23 lung
NCI-H460 lung = system: NCI-H460 lung
NCI-H522 lung = system: NCI-H522 lung
OVCAR-3 ovarian = system: OVCAR-3 ovarian
OVCAR-4 ovarian = system: OVCAR-4 ovarian
OVCAR-8 ovarian = system: OVCAR-8 ovarian
RPMI-8226 leukemia = system: RPMI-8226 leukemia
RXF 393 renal = system: RXF 393 renal
SF-268 CNS = system: SF-268 CNS
SF-295 CNS = system: SF-295 CNS
SF-539 CNS = system: SF-539 CNS
SK-MEL-2 melanoma = system: SK-MEL-2 melanoma
SK-MEL-28 melanoma = system: SK-MEL-28 melanoma
SK-OV-3 ovarian = system: SK-OV-3 ovarian
SN12C renal = system: SN12C renal
SNB-19 CNS = system: SNB-19 CNS
SNB-75 CNS = system: SNB-75 CNS
SNB-78 CNS = system: SNB-78 CNS
SR leukemia = system: SR leukemia
SW-620 colon = system: SW-620 colon
TK-10 renal = system: TK-10 renal
U251 CNS = system: U251 CNS
UACC-257 melanoma = system: UACC-257 melanoma
UACC-62 melanoma = system: UACC-62 melanoma
UO-31 renal = system: UO-31 renal
XF 498 CNS = system: XF 498 CNS
CAKI-1 renal = system: CAKI-1 renal
OVCAR-5 ovarian = system: OVCAR-5 ovarian
SK-MEL-5 melanoma = system: SK-MEL-5 melanoma

With `C[N+]1(C)CCCC1C(=O)[O-]` (configuration not stated) the TGI (786-0 renal) was > 100 µM, the TGI (A498 renal) was > 100 µM and the TGI (A549 NSCLC) was > 100 µM. For the same molecule, the TGI (ACHN renal) was > 100 µM, the TGI (CCRF-CEM leukemia) was > 100 µM and the TGI (COLO 205 colon) was > 100 µM. For the same molecule, the TGI (DLD-1 colon) was > 100 µM, the TGI (DMS 114 small cell lung) was > 100 µM and the TGI (DMS 273 small cell lung) was > 100 µM. For the same molecule, the TGI (EKVX NSCLC) was > 100 µM, the TGI (HCC-2998 colon) was > 100 µM and the TGI (HCT-116 colon) was > 100 µM. For the same molecule, the TGI (HCT-15 colon) was > 100 µM, the TGI (HL-60(TB) leukemia) was > 100 µM and the TGI (HOP-18 NSCLC) was > 100 µM. The TGI (HOP-62 NSCLC) was > 100 µM, the TGI (HOP-92 NSCLC) was > 100 µM and the TGI (HT29 colon) was > 100 µM. The TGI (IGROV1 ovarian) was > 100 µM, the TGI (K-562 leukemia) was > 100 µM and the TGI (KM12 colon) was > 100 µM. For the same molecule, the TGI (KM20L2 colon) was > 100 µM, the TGI (LOX IMVI melanoma) was > 100 µM and the TGI (LXFL 529 NSCLC) was > 100 µM. The TGI (M14 melanoma) was > 100 µM, the TGI (M19-MEL melanoma) was > 100 µM and the TGI (MALME-3M melanoma) was > 100 µM. The TGI (MOLT-4 leukemia) was > 100 µM, the TGI (NCI-H226 lung) was > 100 µM and the TGI (NCI-H23 lung) was > 100 µM. For the same molecule, the TGI (NCI-H460 lung) was > 100 µM, the TGI (NCI-H522 lung) was > 100 µM and the TGI (OVCAR-3 ovarian) was > 100 µM. For the same molecule, the TGI (OVCAR-4 ovarian) was > 100 µM, the TGI (OVCAR-8 ovarian) was > 100 µM and the TGI (RPMI-8226 leukemia) was > 100 µM. The TGI (RXF 393 renal) was > 100 µM, the TGI (SF-268 CNS) was > 100 µM and the TGI (SF-295 CNS) was > 100 µM. The TGI (SF-539 CNS) was > 100 µM, the TGI (SK-MEL-2 melanoma) was > 100 µM and the TGI (SK-MEL-28 melanoma) was > 100 µM. For the same molecule, the TGI (SK-OV-3 ovarian) was > 100 µM, the TGI (SN12C renal) was > 100 µM and the TGI (SNB-19 CNS) was > 100 µM. The TGI (SNB-75 CNS) was > 100 µM, the TGI (SNB-78 CNS) was > 100 µM and the TGI (SR leukemia) was > 100 µM. For the same molecule, the TGI (SW-620 colon) was > 100 µM, the TGI (TK-10 renal) was > 100 µM and the TGI (U251 CNS) was > 100 µM. For the same molecule, the TGI (UACC-257 melanoma) was > 100 µM, the TGI (UACC-62 melanoma) was > 100 µM and the TGI (UO-31 renal) was > 100 µM. For the same molecule, the TGI (XF 498 CNS) was > 100 µM.
With `COC(=O)C(=O)C(C(=O)Nc1cccc(C)c1C)C1Sc2ccccc2NC1=O` (configuration not stated) the TGI (A498 renal) was > 25 µM, the TGI (A549 NSCLC) was > 25 µM and the TGI (ACHN renal) was > 25 µM. The TGI (CAKI-1 renal) was > 25 µM, the TGI (CCRF-CEM leukemia) was > 25 µM and the TGI (COLO 205 colon) was > 25 µM. The TGI (DLD-1 colon) was > 25 µM, the TGI (DMS 114 small cell lung) was 19 µM and the TGI (DMS 273 small cell lung) was > 25 µM. For the same molecule, the TGI (EKVX NSCLC) was > 25 µM, the TGI (HCC-2998 colon) was > 25 µM and the TGI (HCT-116 colon) was > 25 µM. For the same molecule, the TGI (HCT-15 colon) was > 25 µM, the TGI (HL-60(TB) leukemia) was > 25 µM and the TGI (HOP-18 NSCLC) was > 25 µM. For the same molecule, the TGI (HOP-62 NSCLC) was > 25 µM, the TGI (HOP-92 NSCLC) was > 25 µM and the TGI (HT29 colon) was > 25 µM. For the same molecule, the TGI (IGROV1 ovarian) was > 25 µM, the TGI (K-562 leukemia) was > 25 µM and the TGI (KM12 colon) was > 25 µM. The TGI (KM20L2 colon) was > 25 µM, the TGI (LOX IMVI melanoma) was > 25 µM and the TGI (LXFL 529 NSCLC) was > 25 µM. The TGI (M14 melanoma) was > 25 µM, the TGI (M19-MEL melanoma) was > 25 µM and the TGI (MALME-3M melanoma) was 24 µM. For the same molecule, the TGI (MOLT-4 leukemia) was > 25 µM, the TGI (NCI-H226 lung) was > 25 µM and the TGI (NCI-H23 lung) was > 25 µM. The TGI (NCI-H460 lung) was > 25 µM, the TGI (NCI-H522 lung) was > 25 µM and the TGI (OVCAR-3 ovarian) was > 25 µM. For the same molecule, the TGI (OVCAR-4 ovarian) was > 25 µM, the TGI (OVCAR-5 ovarian) was > 25 µM and the TGI (OVCAR-8 ovarian) was > 25 µM. For the same molecule, the TGI (RPMI-8226 leukemia) was > 25 µM, the TGI (RXF 393 renal) was 23.8 µM and the TGI (SF-268 CNS) was > 25 µM. The TGI (SF-295 CNS) was > 25 µM, the TGI (SF-539 CNS) was > 25 µM and the TGI (SK-MEL-2 melanoma) was 18.3 µM. For the same molecule, the TGI (SK-MEL-28 melanoma) was > 25 µM, the TGI (SK-MEL-5 melanoma) was > 25 µM and the TGI (SK-OV-3 ovarian) was > 25 µM. For the same molecule, the TGI (SN12C renal) was > 25 µM, the TGI (SNB-19 CNS) was > 25 µM and the TGI (SNB-75 CNS) was > 25 µM. The TGI (SNB-78 CNS) was > 25 µM, the TGI (SR leukemia) was > 25 µM and the TGI (SW-620 colon) was > 25 µM. For the same molecule, the TGI (TK-10 renal) was > 25 µM, the TGI (U251 CNS) was > 25 µM and the TGI (UACC-257 melanoma) was > 25 µM. The TGI (UACC-62 melanoma) was > 25 µM, the TGI (UO-31 renal) was > 25 µM and the TGI (XF 498 CNS) was > 25 µM.

Reference: PubChem BioAssay (NCI)
